In patent US11236087B2, “Highly active pyrazolo-piperidine substituted indole-2-carboxamides active against the hepatitis B virus (HBV)” (AiCuris GmbH & Co. KG, priority 2017, dated 2022):
Like-named read-outs stand apart in the source and are kept apart here.

Legend:
[1] = Cell viability assay (AlamarBlue) in HepAD38 cells; details: human
[2] = molecular target: T1, HBV core protein (UniProt P03146); test: Biochemical capsid assembly assay (fluorescence quenching); set-up: species or system hepatitis B virus; details: read-out: Assembly Activity (IC50); BODIPY-FL labelled core protein, 300 μM NaCl, read 6 min after start
T1 construct: fused on or other part: BODIPY-FL maleimide label on the C-terminal Cys150
T1 sequence (P03146 whole entry, looked up, the tested form may be a part): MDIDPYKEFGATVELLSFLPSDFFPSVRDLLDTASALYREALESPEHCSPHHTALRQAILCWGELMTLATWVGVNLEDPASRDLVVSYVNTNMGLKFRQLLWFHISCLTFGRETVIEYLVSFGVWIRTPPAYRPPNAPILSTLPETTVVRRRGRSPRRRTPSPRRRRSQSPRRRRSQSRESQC
In short: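 Assembly-induced fluorescence quenching (477/525 nm) was measured 6 min after NaCl addition ([…]), against 2.5 M and 0 M NaCl controls. The labelled C150 core dimer (truncated at 149) at 1.0-2.0 μM in HEPES pH 7.5 was tested with eight half-log compound dilutions, top 100, 31.6 or 10 μM. EC50 was obtained by non-linear fit from triplicates run three times.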

[3] = tested on: HBV; test: Determination of HBV DNA from the supernatants of HepAD38 cells (anti-HBV activity); assay type: cell-based, hepatitis B virus; details: Hepatitis B virus, read-out: Cell Activity (EC50)
In short: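 Supernatant viral DNA was measured by LightCycler qPCR, calibrated with pCH-9/3091 plasmid, 6 days after tetracycline-free HepAD38 cultures received half-log serial compound dilutions; untreated and tetracycline-treated cells served as controls; EC50 was fitted by non-linear regression.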

[4] = 144 h, HBV DNA in HepAD38 supernatant, day 6, qPCR

Row | Structure (SMILES) | CC50 at 6 days [1] | IC50 [2] | EC50 [3, 4] | EC50 ([3]; HePAD38, 144 h)
1 | CN(CCC(=O)NS(=O)(=O)C1CC1)C(=O)c1[nH]nc2c1CN(C(=O)c1cc3ccccc3[nH]1)CC2 [Example 247, N-(cyclopropanesulfonyl)-3-{1-[5-(1H-indole-2-carbonyl)-2H,4H,5H,6H,7H-pyrazolo[4,3-c]pyridin-3-yl]-N-methylformamido}propanamide] | > 10 µM | < 100 µM | < 100 µM | –
2 | O=C(c1cc2ccccc2[nH]1)N1CCc2[nH]nc(C(=O)N3CCC[C@@H](O)C3)c2C1 [Example 161, (3R)-1-[5-(1H-indole-2-carbonyl)-1H,4H,5H,6H,7H-pyrazolo[4,3-c]pyridine-3-carbonyl]piperidin-3-ol] | > 10 µM | 5 to 10 µM | < 1 µM | –
3 | COCC1(N(C)C(=O)c2n[nH]c3c2CN(C(=O)c2cc4c(F)ccc(F)c4[nH]2)CC3)CC1 [Example 297, 5-(4,7-difluoro-1H-indole-2-carbonyl)-N-[1-(methoxymethyl)cyclopropyl]-N-methyl-1H,4H,5H,6H,7H-pyrazolo[4,3-c]pyridine-3-carboxamide] | > 10 µM | < 5 µM | < 1 µM | –
4 | CN(OCCO)C(=O)c1n[nH]c2c1CN(C(=O)c1cc3c(Cl)cccc3[nH]1)CC2 [Example 196, 5-(4-chloro-1H-indole-2-carbonyl)-N-(2-hydroxyethoxy)-N-methyl-1H,4H,5H,6H,7H-pyrazolo[4,3-c]pyridine-3-carboxamide] | > 10 µM | < 5 µM | < 1 µM | –
5 | CN(CC1CCOCC1)C(=O)c1n[nH]c2c1CN(C(=O)c1cc3ccccc3[nH]1)CC2 [Example 85, 5-(1H-indole-2-carbonyl)-N-methyl-N-[(oxan-4-yl)methyl]-1H,4H,5H,6H,7H-pyrazolo[4,3-c]pyridine-3-carboxamide] | > 100 µM | < 100 µM | 1 to 25 µM | –
6 | O=C(c1cc2c(Cl)cccc2[nH]1)N1CCc2n[nH]c(-c3cscn3)c2C1 [Example 19, 4-chloro-2-[3-(1,3-thiazol-4-yl)-2H,4H,5H,6H,7H-pyrazolo[4,3-c]pyridine-5-carbonyl]-1H-indole] | > 10 µM | < 5 µM | < 1 µM | –
7 | CCc1cccc2[nH]c(C(=O)N3CCc4[nH]nc(C5CCCO5)c4C3)cc12 (stereo not drawn) [Example 337, 4-ethyl-2-[3-(oxolan-2-yl)-1H,4H,5H,6H,7H-pyrazolo[4,3-c]pyridine-5-carbonyl]-1H-indole] | > 10 µM | < 5 µM | < 1 µM | –
8 | CC(C)OCC1(N(C)C(=O)c2n[nH]c3c2CN(C(=O)c2cc4ccccc4[nH]2)CC3)CC1 [Example 208, 5-(1H-indole-2-carbonyl)-N-methyl-N-{1-[(propan-2-yloxy)methyl]cyclopropyl}-1H,4H,5H,6H,7H-pyrazolo[4,3-c]pyridine-3-carboxamide] | > 10 µM | < 5 µM | < 1 µM | –
9 | CC(O)c1cccc2[nH]c(C(=O)N3CCc4[nH]nc(C(=O)N(C)CCO)c4C3)cc12 (stereo not drawn) [Example 50, N-(2-hydroxyethyl)-5-[4-(1-hydroxyethyl)-1H-indole-2-carbonyl]-N-methyl-1H,4H,5H,6H,7H-pyrazolo[4,3-c]pyridine-3-carboxamide] | > 32 µM | < 100 µM | < 100 µM | –
10 | [2H]C([2H])([2H])OCC1(N(C)C(=O)c2n[nH]c3c2CN(C(=O)c2cc4ccccc4[nH]2)CC3)CC1 [Example 206, 5-(1H-indole-2-carbonyl)-N-{1-[(2H3)methoxymethyl]cyclopropyl}-N-methyl-1H,4H,5H,6H,7H-pyrazolo[4,3-c]pyridine-3-carboxamide] | > 10 µM | < 5 µM | < 1 µM | –
11 | O=C(c1cc2c(Cl)cc(F)cc2[nH]1)N1CCc2[nH]nc(-c3cscn3)c2C1 [Example 46, 4-chloro-6-fluoro-2-[3-(1,3-thiazol-4-yl)-1H,4H,5H,6H,7H-pyrazolo[4,3-c]pyridine-5-carbonyl]-1H-indole] | > 100 µM | < 5 µM | < 1 µM | –
12 | CCc1cc(F)cc2[nH]c(C(=O)N3CCc4[nH]nc(C5CCCO5)c4C3)cc12 (stereo not drawn) [Example 340, 4-ethyl-6-fluoro-2-[3-(oxolan-2-yl)-1H,4H,5H,6H,7H-pyrazolo[4,3-c]pyridine-5-carbonyl]-1H-indole] | > 10 µM | < 5 µM | < 1 µM | –
13 | CCOCC1(N(C)C(=O)c2[nH]nc3c2CN(C(=O)c2cc4c(Cl)c(F)ccc4[nH]2)CC3)CC1 [Example 364, 5-(4-chloro-5-fluoro-1H-indole-2-carbonyl)-N-[1-(ethoxymethyl)cyclopropyl]-N-methyl-2H,4H,5H,6H,7H-pyrazolo[4,3-c]pyridine-3-carboxamide] | > 10 µM | < 5 µM | < 1 µM | –
14 | CCc1cccc2[nH]c(C(=O)N3CCc4n[nH]c(C(=O)N(C)C5CC5)c4C3)cc12 [Example 328, N-cyclopropyl-5-(4-ethyl-1H-indole-2-carbonyl)-N-methyl-2H,4H,5H,6H,7H-pyrazolo[4,3-c]pyridine-3-carboxamide] | > 10 µM | < 5 µM | < 1 µM | –
15 | O=C(c1cc2c(F)cccc2[nH]1)N1CCc2[nH]ncc2C1 [Example 114, 4-fluoro-2-{1H,4H,5H,6H,7H-pyrazolo[4,3-c]pyridine-5-carbonyl}-1H-indole] | > 100 µM | < 5 µM | < 1 µM | –
16 | CCc1cccc2[nH]c(C(=O)N3CCc4[nH]nc(C(=O)N(C)C5(CO)CC5)c4C3)cc12 [Example 291, 5-(4-ethyl-1H-indole-2-carbonyl)-N-[1-(hydroxymethyl)cyclopropyl]-N-methyl-1H,4H,5H,6H,7H-pyrazolo[4,3-c]pyridine-3-carboxamide] | > 10 µM | < 5 µM | < 1 µM | –
17 | COCC1(N(C)C(=O)c2n[nH]c3c2CN(C(=O)c2cc4c(C(F)F)cc(F)cc4[nH]2)CC3)CC1 [Example 298, 5-[4-(difluoromethyl)-6-fluoro-1H-indole-2-carbonyl]-N-[1-(methoxymethyl)cyclopropyl]-N-methyl-1H,4H,5H,6H,7H-pyrazolo[4,3-c]pyridine-3-carboxamide] | > 10 µM | < 5 µM | < 1 µM | –
18 | CN(Cc1cn(C)nn1)C(=O)c1n[nH]c2c1CN(C(=O)c1cc3ccccc3[nH]1)CC2 [Example 316, 5-(1H-indole-2-carbonyl)-N-methyl-N-[(1-methyl-1H-1,2,3-triazol-4-yl)methyl]-1H,4H,5H,6H,7H-pyrazolo[4,3-c]pyridine-3-carboxamide] | > 10 µM | < 5 µM | 1 to 25 µM | –
19 | Nc1n[nH]c2c1CN(C(=O)c1cc3ccccc3[nH]1)CC2 [Example 115, 5-(1H-indole-2-carbonyl)-1H,4H,5H,6H,7H-pyrazolo[4,3-c]pyridin-3-amine] | > 100 µM | 5 to 10 µM | 1 to 25 µM | –
20 | Cc1cccc2[nH]c(C(=O)N3CCc4[nH]ncc4C3)cc12 [Example 136, 4-methyl-2-{1H,4H,5H,6H,7H-pyrazolo[4,3-c]pyridine-5-carbonyl}-1H-indole] | > 100 µM | < 5 µM | < 1 µM | –
21 | CC(C)OC(=O)[C@H](C)NP(=O)(OCCON(C)C(=O)c1n[nH]c2c1CN(C(=O)c1cc3ccccc3[nH]1)CC2)Oc1ccccc1 (stereo partly drawn) [Example 64, propan-2-yl (2S)-2-({[2-({1-[5-(1H-indole-2-carbonyl)-1H,4H,5H,6H,7H-pyrazolo[4,3-c]pyridin-3-yl]-N-methylformamido}oxy)ethoxy](phenoxy)phosphoryl}amino)propanoate] | > 32 µM | < 5 µM | – | < 1 µM
22 | CC(C)(C)OC(=O)N[C@H]1CCN(C(=O)c2n[nH]c3c2CN(C(=O)c2cc4ccccc4[nH]2)CC3)C1 [Example 194, tert-butyl N-[(3S)-1-[5-(1H-indole-2-carbonyl)-1H,4H,5H,6H,7H-pyrazolo[4,3-c]pyridine-3-carbonyl]pyrrolidin-3-yl]carbamate] | > 10 µM | < 100 µM | 1 to 25 µM | –
23 | O=C(NCC1CCOC1)c1n[nH]c2c1CN(C(=O)c1cc3ccccc3[nH]1)CC2 (stereo not drawn) [Example 96, 5-(1H-indole-2-carbonyl)-N-[(oxolan-3-yl)methyl]-1H,4H,5H,6H,7H-pyrazolo[4,3-c]pyridine-3-carboxamide] | > 100 µM | < 100 µM | 1 to 25 µM | –
24 | O=C(c1cc2c(F)c(F)ccc2[nH]1)N1CCc2[nH]nc(C3CCCO3)c2C1 (stereo not drawn) [Example 338, 4,5-difluoro-2-[3-(oxolan-2-yl)-1H,4H,5H,6H,7H-pyrazolo[4,3-c]pyridine-5-carbonyl]-1H-indole] | > 10 µM | < 5 µM | < 1 µM | –
25 | COCC1(N(C)C(=O)c2n[nH]c3c2CN(C(=O)c2cc4cccc(F)c4[nH]2)CC3)CC1 [Example 308, 5-(7-fluoro-1H-indole-2-carbonyl)-N-[1-(methoxymethyl)cyclopropyl]-N-methyl-1H,4H,5H,6H,7H-pyrazolo[4,3-c]pyridine-3-carboxamide] | > 10 µM | < 5 µM | < 1 µM | –
